Data taken from patent publication US8802597B2, “Herbicidal pyrimidines” (E I du Pont de Nemours and Company, priority 2003, dated 2014).

Columns and labels:
Format in all cases: in vivo
[1] = system: rice (Oryza sativa); experiment: Test B flooded paddy test; conditions: Flood, scale 0 to 100
Procedure, shortened: (§1)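 Plants were grown to the 2-leaf stage before treatment, then kept in a greenhouse for 13 to 15 days. Injury was rated visually against untreated controls on a 0 to 100 scale, where 0 is no effect and 100 is complete control.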

[2] = system: umbrella sedge (Cyperus difformis); experiment: Test B flooded paddy test; conditions: Flood, scale 0 to 100
Procedure, shortened: as §1

[3] = system: barnyardgrass (Echinochloa crus-galli); experiment: Test B flooded paddy test; conditions: Flood
Procedure, shortened: as §1

[4] = system: duck salad (Heteranthera limosa); experiment: Test B flooded paddy test; conditions: Flood, scale 0 to 100
Procedure, shortened: as §1

[5] = system: blackgrass (Alopecurus myosuroides); experiment: Test B postemergence; conditions: for Blackgrass plant response rating: scale 0 to 100 (0 no effect, 100 complete control)
Procedure, shortened: (§2)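 Scores reflect visual comparison with untreated controls, where 0 means no effect and 100 complete control. Plants stayed 13 to 15 days in the greenhouse after pre- or postemergence treatment with compounds carried in a non-phytotoxic solvent and surfactant.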

[6] = system: wild oat (Avena fatua); experiment: Test B postemergence; conditions: for Oat, Wild plant response rating: scale 0 to 100 (0 no effect, 100 complete control)
Procedure, shortened: as §2

[7] = system: velvetleaf (Abutilon theophrasti); experiment: Test B pre/postemergence
Procedure, shortened: as §2

[8] = system: barnyardgrass (Echinochloa crus-galli); experiment: Test B pre/postemergence
Procedure, shortened: as §2

[9] = system: lambsquarters (Chenopodium album); experiment: Test B pre/postemergence
Procedure, shortened: as §2

[10] = system: giant foxtail (Setaria faberii); experiment: Test B pre/postemergence
Procedure, shortened: as §2

[11] = system: morningglory (Ipomoea coccinea); experiment: Test B pre/postemergence
Procedure, shortened: as §2

[12] = system: corn (Zea mays); experiment: Test B pre/postemergence
Procedure, shortened: as §2

[13] = system: cocklebur (Xanthium strumarium); experiment: Test B pre/postemergence
Procedure, shortened: as §2

[14] = system: crabgrass (Digitaria sanguinalis); experiment: Test B pre/postemergence
Procedure, shortened: as §2

[15] = system: Surinam grass (Brachiaria decumbens); experiment: Test B pre/postemergence
Procedure, shortened: as §2

[16] = system: pigweed (Amaranthus retroflexus); experiment: Test B pre/postemergence
Procedure, shortened: as §2

[17] = system: wheat (Triticum aestivum); experiment: Test B pre/postemergence
Procedure, shortened: as §2

[18] = Postemergence, 62 g ai/ha, scale 0 to 100 (0 no effect, 100 complete control)
[19] = Postemergence, 125 g ai/ha, scale 0 to 100 (0 no effect, 100 complete control)
[20] = Preemergence, 62 g ai/ha, scale 0 to 100, 0 no effect, 100 complete control
[21] = Preemergence, 125 g ai/ha, scale 0 to 100 (0 no effect, 100 complete control)
[22] = Postemergence, 500 g ai/ha, scale 0 to 100
[23] = Preemergence, 500 g ai/ha, scale 0 to 100 (0 no effect, 100 complete control)

`CCCOC(=O)c1nc(C2CC2)nc(N)c1Cl` [Compound 75] was tested, and the “Plant response rating, Rice” value ([1]; 125 g ai/ha) was 0, the “Plant response rating, Rice” value ([1]; 500 g ai/ha) was 70 and the “Plant response rating, Sedge, Umbrella” value ([2]; 125 g ai/ha) was 0. The “Plant response rating, Sedge, Umbrella” value ([2]; 500 g ai/ha) was 10, the “Plant response rating, Barnyardgrass” value ([3]; 125 g ai/ha, scale 0 to 100) was 0 and the “Plant response rating, Barnyardgrass” value ([3]; 500 g ai/ha, scale 0 to 100) was 70. For the same compound, the “Plant response rating, Ducksalad” value ([4]; 125 g ai/ha) was 0, the “Plant response rating, Ducksalad” value ([4]; 500 g ai/ha) was 70 and the “Blackgrass plant response rating” value ([5]; 62 g ai/ha) was 50. The “Blackgrass plant response rating” value ([5]; 125 g ai/ha) was 60, the “Oat, Wild plant response rating” value ([6]; 62 g ai/ha) was 50 and the “Oat, Wild plant response rating” value ([6]; 125 g ai/ha) was 60. For the same compound, the “Velvetleaf plant response rating” value [7, 18] was 70, the “Velvetleaf plant response rating” value [7, 19] was 100 and the “Plant response rating, Velvetleaf” value [7, 20] was 80. For the same compound, the “Plant response rating, Velvetleaf” value [7, 21] was 100, the “Barnyardgrass plant response rating” value [8, 18] was 80 and the “Barnyardgrass plant response rating” value [8, 19] was 90. For the same compound, the “Plant response rating, Barnyardgrass” value [8, 20] was 60, the “Plant response rating, Barnyardgrass” value [8, 21] was 80 and the “Lambsquarters plant response rating” value [9, 18] was 90. The “Lambsquarters plant response rating” value [9, 19] was 100, the “Plant response rating, Lambsquarters” value [9, 20] was 100 and the “Plant response rating, Lambsquarters” value [9, 21] was 100. The “Foxtail, Giant plant response rating” value [10, 18] was 60, the “Foxtail, Giant plant response rating” value [10, 19] was 80 and the “Plant response rating, Foxtail, Giant” value [10, 20] was 30. The “Plant response rating, Foxtail, Giant” value [10, 21] was 90, the “Morningglory plant response rating” value [11, 18] was 100 and the “Morningglory plant response rating” value [11, 19] was 100. The “Plant response rating, Morningglory” value [11, 20] was 80, the “Plant response rating, Morningglory” value [11, 21] was 100 and the “Corn plant response rating” value [12, 18] was 60. For the same compound, the “Corn plant response rating” value [12, 19] was 70, the “Plant response rating, Corn” value [12, 20] was 50 and the “Plant response rating, Corn” value [12, 21] was 80. For the same compound, the “Cocklebur plant response rating” value [13, 18] was 70, the “Cocklebur plant response rating” value [13, 19] was 100 and the “Plant response rating, Cocklebur” value [13, 20] was 90. The “Plant response rating, Cocklebur” value [13, 21] was 90, the “Crabgrass plant response rating” value [14, 18] was 70 and the “Crabgrass plant response rating” value [14, 19] was 80. For the same compound, the “Plant response rating, Crabgrass” value [14, 20] was 80, the “Plant response rating, Crabgrass” value [14, 21] was 90 and the “Surinam Grass plant response rating” value [15, 18] was 70. The “Surinam Grass plant response rating” value [15, 19] was 80, the “Plant response rating, Surinam Grass” value [15, 20] was 70 and the “Plant response rating, Surinam Grass” value [15, 21] was 80. For the same compound, the “Pigweed plant response rating” value [16, 18] was 80, the “Pigweed plant response rating” value [16, 19] was 90 and the “Plant response rating, Pigweed” value [16, 20] was 100. For the same compound, the “Plant response rating, Pigweed” value [16, 21] was 100, the “Wheat plant response rating” value [17, 18] was 50 and the “Wheat plant response rating” value [17, 19] was 70. For the same compound, the “Plant response rating, Wheat” value [17, 20] was 30 and the “Plant response rating, Wheat” value [17, 21] was 70.
`CC(C)COC(=O)c1nc(C2CC2)nc(N)c1Br` [Compound 17] was tested, and the “Plant response rating, Rice” value ([1]; 1000 g ai/ha) was 50, the “Plant response rating, Sedge, Umbrella” value ([2]; 1000 g ai/ha) was 50 and the “Plant response rating, Barnyardgrass” value ([3]; 1000 g ai/ha, scale 0 (no effect) to 100 (complete control)) was 80. The “Plant response rating, Ducksalad” value ([4]; 1000 g ai/ha) was 90, the “Blackgrass plant response rating” value ([5]; 125 g ai/ha) was 0 and the “Plant response rating, Blackgrass” value ([5]; 500 g ai/ha, scale 0 to 100) was 70. The “Oat, Wild plant response rating” value ([6]; 125 g ai/ha) was 0, the “Plant response rating, Oat, Wild” value ([6]; 500 g ai/ha, scale 0 to 100) was 50 and the “Velvetleaf plant response rating” value [7, 19] was 60. For the same compound, the “Plant response rating, Velvetleaf” value [7, 22] was 100, the “Plant response rating, Velvetleaf” value [7, 21] was 70 and the “Velvetleaf plant response rating” value [7, 23] was 90. The “Barnyardgrass plant response rating” value [8, 19] was 20, the “Plant response rating, Barnyardgrass” value [8, 22] was 90 and the “Plant response rating, Barnyardgrass” value [8, 21] was 20. The “Barnyardgrass plant response rating” value [8, 23] was 80, the “Lambsquarters plant response rating” value [9, 19] was 100 and the “Plant response rating, Lambsquarters” value [9, 22] was 100. For the same compound, the “Plant response rating, Lambsquarters” value [9, 21] was 90, the “Lambsquarters plant response rating” value [9, 23] was 100 and the “Foxtail, Giant plant response rating” value [10, 19] was 10. The “Plant response rating, Foxtail, Giant” value [10, 22] was 70, the “Plant response rating, Foxtail, Giant” value [10, 21] was 20 and the “Foxtail, Giant plant response rating” value [10, 23] was 70. For the same compound, the “Morningglory plant response rating” value [11, 19] was 100, the “Plant response rating, Morningglory” value [11, 22] was 100 and the “Plant response rating, Morningglory” value [11, 21] was 100. The “Morningglory plant response rating” value [11, 23] was 100, the “Corn plant response rating” value [12, 19] was 0 and the “Plant response rating, Corn” value [12, 22] was 80. The “Plant response rating, Corn” value [12, 21] was 0, the “Corn plant response rating” value [12, 23] was 60 and the “Cocklebur plant response rating” value [13, 19] was 100. The “Plant response rating, Cocklebur” value [13, 22] was 100, the “Plant response rating, Cocklebur” value [13, 21] was 80 and the “Cocklebur plant response rating” value [13, 23] was 90. For the same compound, the “Crabgrass plant response rating” value [14, 19] was 20, the “Plant response rating, Crabgrass” value [14, 22] was 50 and the “Plant response rating, Crabgrass” value [14, 21] was 70. The “Crabgrass plant response rating” value [14, 23] was 100, the “Surinam Grass plant response rating” value [15, 19] was 30 and the “Plant response rating, Surinam Grass” value [15, 22] was 80. For the same compound, the “Plant response rating, Surinam Grass” value [15, 21] was 30, the “Surinam Grass plant response rating” value [15, 23] was 90 and the “Pigweed plant response rating” value [16, 19] was 70. The “Plant response rating, Pigweed” value [16, 22] was 90, the “Plant response rating, Pigweed” value [16, 21] was 80 and the “Pigweed plant response rating” value [16, 23] was 100. For the same compound, the “Wheat plant response rating” value [17, 19] was 0, the “Plant response rating, Wheat” value [17, 22] was 60 and the “Plant response rating, Wheat” value [17, 21] was 40. The “Wheat plant response rating” value [17, 23] was 60.
